Among the data in patent US10538555B2, “Macrocyclic inhibitors of the PD-1/PD-L1 and CD80(B7-1)/PD-L1 protein/protein interactions” (BRISTOL-MYERS SQUIBB COMPANY, priority 2014, dated 2020) are IC50 values, retold here.

In the experiment the target is T1, Human PD-L1/PD-1 (Homo sapiens, UniProt Q9NZQ7).
T1 construct: TVMV protease cleavage site (C); made in house; host or cells: HEK293T cells
The experiment can be described thus: HTRF Human PD-L1/PD-1 binding assay (PD-1-Ig/PD-L1-His). Conditions: PD-L1-His 10 nM, PD-1-Ig 20 nM. The gist of the method: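 Step 1: compound with PD-L1-His (10 nM final), 15 min. Step 2: PD-1-Ig (20 nM final), 15 min. Step 3: Eu-cryptate anti-Ig (1 nM) plus APC anti-His (20 nM), 30 min equilibration. Signal taken as 665 nm/620 nm ratio.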
For orientation: In TR-FRET formats the signal depends on donor and acceptor labels being close together.

The mark [1] stands for this setting: class symbol, read-out: HTRF Human PD-L1/PD-1 Binding Assay IC50 Range.

pIC50: −log10 of the molar value. Read-outs that look alike come from different tables or passages of the source. *1 amine or outer side, *2 acyl side, *3 side chain or, on linkers, in order; H or OH if unused. Where a SMILES comes first, the peptide text is derived from it. Bridges are numbered along the chain shown (N, C = ends). [ ]: non-standard residue; d: D form. Trp(1-CH2COOH) = N[C@@H](Cc1cn(CC(=O)O)c2ccccc12)C(=O)O; Phe(3,4,5-F3) = N[C@@H](Cc1cc(F)c(F)c(F)c1)C(=O)O; Phe(3,4-F2) = N[C@@H](Cc1ccc(F)c(F)c1)C(=O)O; Phe(4-CH2NH2) = NCc1ccc(C[C@H](N)C(=O)O)cc1; Trp(1-Me) = Cn1cc(C[C@H](N)C(=O)O)c2ccccc21; Phe(4-F) = N[C@@H](Cc1ccc(F)cc1)C(=O)O; d(cisHyp) = O=C(O)[C@H]1C[C@@H](O)CN1; NMeY = CN[C@@H](Cc1ccc(O)cc1)C(=O)O; Hyp = O=C(O)[C@@H]1C[C@@H](O)CN1; NMeF = CN[C@@H](Cc1ccccc1)C(=O)O; X1 = O=C([C@H]1COCCN1[*:1])[*:2]; NMeNle = CCCC[C@H](NC)C(=O)O; NMeM = CN[C@@H](CCSC)C(=O)O; hSer = N[C@@H](CCO)C(=O)O; NMeA = CN[C@@H](C)C(=O)O; dThz = O=C(O)[C@H]1CSCN1; Dap = NC[C@H](N)C(=O)O; Sar = CNCC(=O)O

T1 sequence (Q9NZQ7 with tags, fused parts or gaps): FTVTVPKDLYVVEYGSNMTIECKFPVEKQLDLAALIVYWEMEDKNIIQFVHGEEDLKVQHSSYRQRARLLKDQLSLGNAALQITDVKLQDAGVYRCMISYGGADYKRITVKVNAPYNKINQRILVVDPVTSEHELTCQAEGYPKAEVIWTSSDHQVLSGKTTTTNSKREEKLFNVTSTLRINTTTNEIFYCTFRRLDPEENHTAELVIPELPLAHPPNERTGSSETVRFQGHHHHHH

As for `CCCC[C@H]1C(=O)N(C)[C@@H](CCCC)C(=O)N[C@@H](CCC(=O)O)C(=O)N[C@H](C(=O)NCC(N)=O)CSCC(=O)N[C@@H](Cc2ccc(O)cc2)C(=O)N(C)[C@@H](C)C(=O)N[C@@H](CC(=O)O)C(=O)N2CCC[C@H]2C(=O)N[C@@H](Cc2cnc[nH]2)C(=O)N[C@@H](CCC(N)=O)C(=O)N2C[C@H](O)C[C@H]2C(=O)N[C@@H](Cc2c[nH]c3ccccc23)C(=O)N[C@@H](CO)C(=O)N[C@@H](Cc2cn(C)c3ccccc23)C(=O)N1C` [Example 1500] ({CH2CO}-Y[NMeA]DPHQ[Hyp]WS[Trp(1-Me)][NMeNle][NMeNle]ECG-NH2; thioether N-14), the pIC50 under setting [1] was 8.00 to 9.00.

Turning to `CCCC[C@H]1C(=O)N(C)CC(=O)N[C@@H](CC(N)=O)C(=O)N[C@@H](C(C)C)C(=O)N(C)[C@@H](Cc2ccccc2)C(=O)N[C@@H](CC(=O)O)C(=O)N(C)CC(=O)N[C@@H](Cc2c[nH]c3ccccc23)C(=O)N[C@@H](Cc2ccc(CN)cc2)C(=O)N[C@@H](CC(C)C)C(=O)N[C@H](C(=O)NCC(N)=O)CSCC(=O)N[C@@H](Cc2ccccc2)C(=O)N(C)[C@@H](Cc2ccccc2)C(=O)N1C` [Example 3212] ({CH2CO}-F[NMeF][NMeNle][Sar]NV[NMeF]D[Sar]W[Phe(4-CH2NH2)]LCG-NH2; thioether N-13), under setting [1], the pIC50 was 7.00 to 8.00.

In the case of `CCCC[C@H]1C(=O)N(C)[C@@H](CCCC)C(=O)N[C@@H](CC(C)C)C(=O)N[C@H](C(=O)NCC(N)=O)CSCC(=O)N[C@@H](Cc2ccc(O)cc2)C(=O)N(C)[C@@H](C)C(=O)N[C@@H](CC(=O)O)C(=O)N2CCC[C@H]2C(=O)N[C@@H](Cc2c[nH]cn2)C(=O)N[C@@H](CCCCNC(C)=O)C(=O)N2C[C@H](O)C[C@H]2C(=O)N[C@@H](Cc2c[nH]c3ccccc23)C(=O)N[C@@H](CCCCN)C(=O)N[C@@H](Cc2c[nH]c3ccccc23)C(=O)N1C` [Example 5202] ({CH2CO}-Y[NMeA]DPHK(Ac)[Hyp]WKW[NMeNle][NMeNle]LCG-NH2; thioether N-14), under setting [1], the pIC50 was 8.00 to 9.00.

As to `CCCC[C@H]1C(=O)N[C@@H](CCC(N)=O)C(=O)N2CCC[C@@H]2C(=O)N[C@@H](Cc2c[nH]c3ccccc23)C(=O)N[C@@H](Cc2ccc(O)cc2)C(=O)N[C@@H](CC(C)C)C(=O)N[C@H](C(=O)NCC(N)=O)CSCC(=O)N[C@@H](Cc2ccc(F)cc2)C(=O)N(C)[C@@H](Cc2ccccc2)C(=O)N(C)[C@@H](CCCC)C(=O)N2CCC[C@@H]2C(=O)N[C@@H](CC(=O)O)C(=O)N[C@@H](C(C)C)C(=O)N1C` [Example 9215] ({CH2CO}-[Phe(4-F)][NMeF][NMeNle][dP]DV[NMeNle]Q[dP]WYLCG-NH2; thioether N-13), the pIC50 under setting [1] is 7.00 to 8.00.

On to `CCCC[C@H]1C(=O)N2C[C@H](O)C[C@@H]2C(=O)N[C@@H](CC(=O)O)C(=O)N[C@@H](C(C)C)C(=O)N(C)[C@@H](Cc2ccccc2)C(=O)N[C@@H](CCC(=O)O)C(=O)N2CSC[C@@H]2C(=O)N[C@@H](Cc2c[nH]c3ccccc23)C(=O)N[C@@H](Cc2ccc(O)cc2)C(=O)N[C@@H](CC(C)C)C(=O)N[C@H](C(=O)NCC(N)=O)CSCC(=O)N[C@@H](Cc2cc(F)c(F)c(F)c2)C(=O)N(C)[C@@H](Cc2ccccc2)C(=O)N1C` [Example 10148] ({CH2CO}-[Phe(3,4,5-F3)][NMeF][NMeNle][d(cisHyp)]DV[NMeF]E[dThz]WYLCG-NH2; thioether N-13), for which the pIC50 under setting [1] was 8.00 to 9.00.

Regarding `CCCC[C@H]1C(=O)N2C[C@H](O)C[C@@H]2C(=O)N[C@@H](CC(=O)O)C(=O)N[C@@H](C(C)C)C(=O)N(C)[C@@H](Cc2ccccc2)C(=O)N[C@@H](Cc2ccc(OC)cc2)C(=O)N2CCOC[C@@H]2C(=O)N[C@@H](Cc2c[nH]c3ccccc23)C(=O)N[C@@H](Cc2ccc(O)cc2)C(=O)N[C@@H](CCOC)C(=O)N[C@H](C(=O)NCC(N)=O)CSCC(=O)N[C@@H](Cc2cc(F)c(F)c(F)c2)C(=O)N(C)[C@@H](Cc2ccccc2)C(=O)N1C` [Example 10180] ({CH2CO}-[Phe(3,4,5-F3)][NMeF][NMeNle][d(cisHyp)]DV[NMeF]Y(Me)[X1]WY[hSer](Me)CG-NH2; thioether N-13), the pIC50 under setting [1] was 7.00 to 8.00.

`CCCC[C@H]1C(=O)N2CCC[C@@H]2C(=O)N[C@@H](CC(=O)O)C(=O)N[C@@H](C(C)C)C(=O)N(C)[C@@H](Cc2ccccc2)C(=O)N[C@@H](CCC(=O)O)C(=O)N2CCOC[C@@H]2C(=O)N[C@@H](Cc2c[nH]c3ccccc23)C(=O)N[C@@H](Cc2ccc(O)cc2)C(=O)N[C@@H](CC(C)C)C(=O)N[C@H](C(=O)NCC(N)=O)CSCC(=O)N[C@@H](Cc2cc(F)c(F)c(F)c2)C(=O)N(C)[C@@H](Cc2ccc(O)cc2)C(=O)N1C` [Example 10599] ({CH2CO}-[Phe(3,4,5-F3)][NMeY][NMeNle][dP]DV[NMeF]E[X1]WYLCG-NH2; thioether N-13): the pIC50 under setting [1] was 8.00 to 9.00.

In the case of `CSCC[C@H]1C(=O)N2C[C@H](O)C[C@H]2C(=O)N[C@@H](CC(N)=O)C(=O)N[C@@H](C(C)C)C(=O)N(C)[C@@H](Cc2ccccc2)C(=O)N[C@@H](Cc2ccc(O)cc2)C(=O)N2C[C@H](O)C[C@H]2C(=O)N[C@@H](Cc2c[nH]c3ccccc23)C(=O)N[C@@H](Cc2ccc(O)cc2)C(=O)N[C@@H](CC(C)C)C(=O)N[C@H](C(=O)NCC(N)=O)CSCC(=O)N[C@@H](Cc2ccccc2)C(=O)N(C)[C@@H](Cc2ccccc2)C(=O)N1C` [Example 9167] ({CH2CO}-F[NMeF][NMeM][Hyp]NV[NMeF]Y[Hyp]WYLCG-NH2; thioether N-13), the pIC50 (read-out: HTRF Human PD-L1/PD-1 Binding Assay IC50) is 6.00.

Take `CCCC[C@H]1C(=O)N(C)[C@@H](CCCC)C(=O)N[C@@H](CC(C)C)C(=O)N[C@H](C(=O)NCC(N)=O)CSCC(=O)N[C@@H](Cc2ccc(O)cc2)C(=O)N(C)[C@@H](C)C(=O)N[C@@H](CC(N)=O)C(=O)N2CCC[C@H]2C(=O)N[C@@H](Cc2cnc[nH]2)C(=O)N[C@@H](CCC(N)=O)C(=O)N2C[C@H](O)C[C@H]2C(=O)N[C@@H](Cc2c[nH]c3ccccc23)C(=O)N[C@@H](CO)C(=O)N[C@@H](Cc2cn(CC(=O)O)c3ccccc23)C(=O)N1C` [Example 6176] ({CH2CO}-Y[NMeA]NPHQ[Hyp]WS[Trp(1-CH2COOH)][NMeNle][NMeNle]LCG-NH2; thioether N-14): under setting [1], the pIC50 was 7.00 to 8.00.

On to `CCCC[C@H]1C(=O)N2C[C@H](O)C[C@@H]2C(=O)N[C@@H](CC(=O)O)C(=O)N[C@@H](C(C)C)C(=O)N(C)[C@@H](Cc2ccccc2)C(=O)N[C@@H](CCC(N)=O)C(=O)N2C[C@H](O)C[C@@H]2C(=O)N[C@@H](Cc2c[nH]c3ccccc23)C(=O)N[C@@H](Cc2ccc(O)cc2)C(=O)N[C@@H](CCC(=O)O)C(=O)N[C@H](C(=O)NCC(N)=O)CSCC(=O)N[C@@H](Cc2ccc(F)c(F)c2)C(=O)N(C)[C@@H](Cc2ccccc2)C(=O)N1C` [Example 9315] ({CH2CO}-[Phe(3,4-F2)][NMeF][NMeNle][d(cisHyp)]DV[NMeF]Q[d(cisHyp)]WYECG-NH2; thioether N-13), for which the pIC50 under setting [1] is 7.00 to 8.00.

On to `CCCC[C@H]1C(=O)N(C)[C@@H](CCCC)C(=O)N[C@@H](CCC(=O)O)C(=O)N[C@H](C(=O)NCC(N)=O)CSCC(=O)N[C@@H](Cc2ccc(OC)cc2)C(=O)N(C)[C@@H](C)C(=O)N[C@@H](CC(N)=O)C(=O)N2CCC[C@H]2C(=O)N[C@@H](CN)C(=O)N[C@@H](CCC(=O)O)C(=O)N2C[C@H](O)C[C@H]2C(=O)N[C@@H](Cc2c[nH]c3ccccc23)C(=O)N[C@@H](CC(=O)O)C(=O)N[C@@H](Cc2c[nH]c3ccccc23)C(=O)N1C` [Example 7117] ({CH2CO}-Y(Me)[NMeA]NP[Dap]E[Hyp]WDW[NMeNle][NMeNle]ECG-NH2; thioether N-14), for which the pIC50 under setting [1] is 7.00 to 8.00.
